This is an account of results in US20260166084A1, “NOVEL DRUG-INDUCIBLE DEGRADATION TAGS” (THE INSTITUTE OF CANCER RESEARCH: ROYAL CANCER HOSPITAL, priority 2022, published 2026).

Assay [1] has as its system degron containing domains (DCDs). Briefly: Degradation matrix of DCD tags with IMiD/CELMoD panel by flow cytometry. To be noted: panel of IMiD/CELMoD small molecules, FIG. 1. The assay is classed as cell-based. An excerpt:
FIG. 1: Experimental evaluation of the DCD tags. (a) Heat map summary of the degradation matrix data of all the DCDs tested in flow cytometry experiments. Normalized values were represented in the Log 2 Fold Change relative to the DMSO control. […] (b) Representation of iTAG1-DCD23 (60 aa). The 2 Cys and 2 His from the C2H2 zinc finger motif are highlighted in light grey. The crucial Glycine in the b-hairpin loop degron is highlighted in bold dark grey.
To address the limitations of the currently available protein modulation tools, the inventors developed a novel and robust system for targeted protein degradation by exploiting the fusion of an IMiD/CeLMOD recognition sequence to a protein of interest. […] This 60 amino acid sequence is referred to as iTAG1 (DCD23) herein.
Construct expression was induced by treating cells with 1 μg/ml DOX for 24 h. The cells were treated with IMiDs/CELMoDs at concentrations and time-points indicated for each experimental setting. Cells were collected, on ice, in sterile 5 ml polystyrene round-bottom tubes. DAPI (4′,6-diamidino-2-phenylindole; ThermoFisher Scientific) was added to the cell suspension at a ratio of 1:1000, as a marker for cell viability. The EGFP signal was measured on the BD LSR II flow cytometer (BD Biosciences). Further processing of the results was performed using FlowJo 10 Software (FlowJo).

The subject of the next assay is HMEC cells. Kind of assay: Nuclear localisation by immunofluorescence in HMEC. In kind it is cell-based, human. The conditions noted are these: fluorescence microscopy, FIG. 3b and 13. The method, then: To determine localisation of “superdegron” which has a degree of homology with iTAG1, the inventors cloned superdegron into the expression vector to replace iTAG1 as the degron fused with GFP.
HMEC cells were seeded in glass bottom 96-well plates (Perkin Elmer) at a 1000 cells/well and treated with 1 μg/ml DOX for 24 h to induce construct. Cells were fixed using 4% paraformaldehyde in PBS solution for 15 min at 37° C. and permeabilised with 0.05% Titon-X-100 detergent for 10 min at room temperature. Prior to proceeding to cell imaging, the cells were incubated for a min with 1 μg/ml DAPI (ThermoFisher Scientific) to stain the cell nuclei. Cells were visualised on the Zeiss Axio Vert.A1 FL-LED inverted epifluorescence microscope (Zeiss) and images were captured using the ZEN Blue software (Zeiss).

For assay [2], the system named is SupT1 cells transduced to express human B7H3. Briefly: CAR functionality: cytokine ELISA after co-culture with SupT1-B7H3 targets. In kind it is cell-based. To be noted: primary human T cells, 1:1 with SupT1-B7H3, overnight, ELISA, FIG. 9. An excerpt: To evaluate whether the brighter CAR expression of iTAG2 tagged CAR compared with DCD23-tagged CAR translated into greater effector function, the respective CAR-T populations from the two independent donors were co-cultured overnight with human SupT1 leukaemia target cells isogenic for the target antigen B7H3. Wild type SupT1 have no detectable B7H3 expression. Following overnight culture of T cells with the targets, culture supernatant was harvested and evaluated for inflammatory cytokines interferon gamma and Interleukin-2 by ELISA (FIG. 9).
(§1) CAR expression in PBMC-derived T cells following degradation with 10, 1, 0.1, 0.01, 0.001 or 0 uM iberdomide after 24 hours, was assessed by flow cytometry. To assess CAR functionality+/−degrader tag, transduced T cells were cultured 24 hours with SUPT1+/−B7H3 at a 1:1 ratio. Supernatant was harvested, and IL-2 and IFNγ levels determined by ELISA.

In assay [3] the test system is iTAG2 and DCD23-tagged chimeric antigen receptor (TE9-28-Z). Kind of assay: IMiD induced degradation of tagged CAR in transduced Jurkat cells. In kind it is cell-based, human. The method, then:
as §1
(§2) CAR surface expression for transduction efficiency and degradation experiments in primary cells and cell lines was quantified using his-tagged B7H3 protein in combination with anti his-tagged fluorescent antibody (J095G45, BioLegend), and directly fluorescently labelled anti CD34 antibody (QBEnd10, R&D), using LSR2 cytometer. Analysis used Flo-Jo software.

The test system of assay [4] is anti-B7H3 chimeric antigen receptor (TE9). Briefly: Cell surface expression of tagged CAR in transduced Jurkat and 293T cells by flow cytometry. In kind it is cell-based, human. The conditions noted are these: for surface expression of tagged CARs: transduced Jurkat cells, 41BB and CD28 versions of TE9 CAR, FIG. 10. The method, then:
Initial experiments evaluated expression and degradation in human Jurat T cell leukaemia cells or human 293T cells, which were stably transduced with untagged, iTAG1(DCD23)-tagged, and iTAG2-tagged anti-B7H3 CAR-T cells. Here the relative expression of the CAR and the CD34 marker gene are determined by direct staining and evaluation by flow cytometry.
Jurkat and 293T cell lines were grown in DMEM with 10% fetal calf serum and transduced with constructs containing CAR+/−degrader tag. Transduction efficiency was analysed 72 hours post transduction by flow cytometry, staining for the CD34 epitope encoded by the RQR8 gene.
as §2

The target in assay [5] is T1, complexes formed between CRBN/DDB1 and IMiDs (Homo sapiens, UniProt Q96SW2).
T1 construct: 5 nM WT full length CRBN/DDB1 complex; made in house
T1 sequence (Q96SW2 whole entry): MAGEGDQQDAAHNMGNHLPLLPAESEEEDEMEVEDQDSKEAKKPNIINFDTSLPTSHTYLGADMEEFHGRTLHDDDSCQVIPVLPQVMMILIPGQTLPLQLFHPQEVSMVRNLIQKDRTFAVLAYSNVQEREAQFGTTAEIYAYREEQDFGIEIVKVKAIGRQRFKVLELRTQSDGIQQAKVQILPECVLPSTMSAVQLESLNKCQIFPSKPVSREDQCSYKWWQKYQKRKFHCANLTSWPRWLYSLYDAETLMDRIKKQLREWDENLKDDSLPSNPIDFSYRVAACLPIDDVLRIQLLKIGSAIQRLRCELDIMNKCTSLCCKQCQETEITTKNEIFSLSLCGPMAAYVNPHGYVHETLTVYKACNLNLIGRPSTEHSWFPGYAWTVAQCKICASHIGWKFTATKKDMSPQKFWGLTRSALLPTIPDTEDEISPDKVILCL
T1 sequence (Q16531 whole entry partner): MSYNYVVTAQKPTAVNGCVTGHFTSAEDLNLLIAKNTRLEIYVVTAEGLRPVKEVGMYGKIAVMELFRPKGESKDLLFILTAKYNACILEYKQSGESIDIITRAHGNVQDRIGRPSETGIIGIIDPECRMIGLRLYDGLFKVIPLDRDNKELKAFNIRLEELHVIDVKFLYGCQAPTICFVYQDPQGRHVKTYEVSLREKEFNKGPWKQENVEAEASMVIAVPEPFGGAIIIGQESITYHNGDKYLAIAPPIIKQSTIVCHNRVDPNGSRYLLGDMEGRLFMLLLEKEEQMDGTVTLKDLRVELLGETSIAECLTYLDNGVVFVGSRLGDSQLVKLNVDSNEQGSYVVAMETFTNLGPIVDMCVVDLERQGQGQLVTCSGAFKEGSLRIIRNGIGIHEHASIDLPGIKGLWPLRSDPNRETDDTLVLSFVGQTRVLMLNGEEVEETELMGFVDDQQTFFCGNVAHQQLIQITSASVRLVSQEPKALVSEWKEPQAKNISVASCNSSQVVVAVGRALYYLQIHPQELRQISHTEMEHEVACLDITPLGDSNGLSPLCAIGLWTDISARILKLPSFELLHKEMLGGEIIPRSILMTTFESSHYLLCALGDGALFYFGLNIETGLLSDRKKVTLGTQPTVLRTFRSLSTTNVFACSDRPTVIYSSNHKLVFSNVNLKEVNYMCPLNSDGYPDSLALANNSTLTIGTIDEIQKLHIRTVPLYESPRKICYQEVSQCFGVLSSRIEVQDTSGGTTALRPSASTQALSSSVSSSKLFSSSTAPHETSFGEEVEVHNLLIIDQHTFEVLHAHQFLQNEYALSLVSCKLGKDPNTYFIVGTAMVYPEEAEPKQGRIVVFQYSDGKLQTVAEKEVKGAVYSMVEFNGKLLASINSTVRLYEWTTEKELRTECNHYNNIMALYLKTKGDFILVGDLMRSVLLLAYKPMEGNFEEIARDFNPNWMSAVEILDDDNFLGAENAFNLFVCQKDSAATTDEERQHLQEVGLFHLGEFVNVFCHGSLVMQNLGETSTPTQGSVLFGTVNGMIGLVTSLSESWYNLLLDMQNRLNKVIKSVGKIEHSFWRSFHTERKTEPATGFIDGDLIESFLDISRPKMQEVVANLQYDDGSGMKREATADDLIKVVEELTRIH
Briefly: Aiolos peptide-based TR-FRET assay. The assay is classed as binding. The conditions noted are these: IMiDs at 10 μM. The protocol:
A schematic representation of the Aiolos peptide-based time resolved-Förster resonance energy transfer (TR-FRET) assay is presented in FIG. 11. […] The results are presented in FIG. 12, including the IC50s calculated from the TR-FRET curves. Overall, the IC50s obtained for iTAG2 were higher than those obtained for iTAG1 with about a 10-fold difference.
All TR-FRET assays were ran in Black 384-well ProxiPlate Plus (Perkin-Elmer, USA), in a buffer containing 20 mM HEPES pH 8.0, 150 mM NaCl, 0.5 mM TCEP, 0.05% Tween 20 and 0.05% BSA, with a final assay volume of 10 μL. An Echo E550 (Beckman Coulter, USA) acoustic liquid dispenser was used to create final concentration ranges from 82 μM down to 2.05 nM for iTAG1 and 27 μM down to 0.68 nM for iTAG2. Final concentrations of 5 nM WT full length CRBN/DDB1 complex, 750 nM Sulfo-Cy5 fluorescent Aiolos-based peptidic probe (Cambridge Research Biochemicals, UK), 750 nM Zn(OAc)^2 and 0.5 nM MAb Anti-6HIS-Terbium cryptate Gold (Cisbio, France) were added with a Tempest liquid handler (Formulatrix, USA). Finally, IMiDs were added to a final concentration of 10 μM with the Echo. Plates were sealed, centrifuged at 200 g for 1 min and stored overnight at 4° C. The TR-FRET signals were read using a PHERAstar FSX plate reader (BMG Labtech, Germany). Final signal was measured as the ratio: […]

For a further assay, the system named is TE9-28-Z CAR. Kind of assay: IMiD induced degradation and re-expression of tagged CAR in primary human T cells. In kind it is cell-based. An excerpt:
The re-expression of degraded chimeric antigen receptors following removal of the degrader drug is important for the CAR-T cell to be able to toggle between active and resting states, thereby allowing additional therapeutic manipulation and fine-tuning.
To evaluate the general functionality of the TE9-28Z-iTAG2 anti-B7H3 CAR-T construct when expressed from a different viral vector, driven by alternate promoter, the construct was cloned into third generation lentivector pCLL2 backbone and viral supernatant was generated by transient transfection of 293T cells, with virus pseudotyped with VSV-G. Two versions of the TE9-28Z-iTAG2 sequence were evaluated in this format, which were with and without codon optimisation and removal of cloning scars. There are no differences in amino acid sequence of iTAG2 between original (construct 3) and codon optimised (construct 4) versions (FIG. 16 a and b). […] The log reduction in CAR expression as expressed as geometric median fluorescence intensity (gMFI) was highly consistent. […]
PBMC-derived T cells from 2 healthy donor blood cones were cultured following CD56 depletion (day0) which was performed using Miltenyi CD56 depletion beads and magnetic negative selection using LD columns according to manufacturer's instructions. […] Transduction efficiency was assessed 4 days post transduction by flow cytometry staining for RQR8 and CAR expression.
CAR expression in PBMC-derived T cells following degradation with 10, 1, 0.1, 0.01, 0.001 or 0 uM iberdomide after 24 hours, was assessed by flow cytometry. […] Supernatant was harvested, and IL-2 and IFNγ levels determined by ELISA.
CAR surface expression for transduction efficiency and degradation experiments in primary cells and cell lines was quantified using his-tagged B7H3 protein in combination with anti his-tagged fluorescent antibody (J095G45, BioLegend), and directly fluorescently labelled anti CD34 antibody (QBEnd10, R&D), using LSR2 cytometer. […]

With “iTAG1: 60 amino acid degron tag based on a chimeric sequence of Ikaros and ZFP91 (PNVLMVHKRSHTGERPLQCEICGFTCRQKGNLLRHIKLHSGEKPFKCHLCNYACRRRDAL)”, in assay [1], the “drug-induced degradation of DCD tag” value was “induces acute target degradation in vitro and in vivo”. The “nuclear accumulation / localisation of tagged EGFP/GFP” value in the assay on HMEC cells is on record as “predominant nuclear localisation”. Moreover, in assay [2], the “reduced IL-2 secretion compared with iTAG2 fusion protein” value is “approximately 30 fold” and the “reduced effector function compared with iTAG2 fusion protein, interferon gamma secretion” value is recorded as “approximately 5 fold”. Also, the “time of drug treatment at which maximal reduction of surface expression is detectable” value in assay [3] (lenalidomide, pomalidomide, iberdomide) worked out at 4 h. Also, the “cell surface expression of tagged CAR relative to CD34 marker” value in assay [4] (transduced 293T and Jurkat cells, FIG. 6) is “relatively poor cell surface expression”. In addition, the “surface expression of tagged CARs” value in assay [4] is “weak surface expression”.

“SuperDegron: prototypic zinc finger-based 60 amino acid degron, hybrid of ZFP91 and IKZF3 (WO2019089592) (FNVLMVHKRSHTGERPLQCEICGFTCRQKGNLLRHIKLHTGEKPFKCHLCNYACQRRDAL; SuperDegron) [reference compound]”: the “nuclear accumulation / localisation of tagged EGFP/GFP” value in the assay with HMEC cells is listed as “strong nuclear localisation”. For the same compound, the “surface expression of tagged CARs” value in assay [4] is on record as “weak surface expression”.

Consider `O=C1CC[C@H](N2Cc3c(OCc4ccc(CN5CCOCC5)cc4)cccc3C2=O)C(=O)N1` [Iberdomide/ CC220, Iberdomide], for which the “relative affinity of iTAG1 and iTAG2 for CRBN/DDB1-IMiD complex, order of IMiDs” value in assay [5] was “tightest binding”. Also, the “optimal IMiD concentration to mediate CAR downregulation upon treatment and re-upregulation upon withdrawal” value in the assay on TE9-28-Z CAR (TE9-iTAG2 CAR-T, overnight treatment, wash, 24 h rest, FIG. 15) came to 0.01 µM. Also, in the assay on TE9-28-Z CAR (primary human T cells, 10 uM iberdomide for 24 hours, FIG. 8), the “CAR expression after drug treatment” value was “near complete loss of expression of the brightly expressed CAR population”. Moreover, the “drug concentration at which nearly maximal downregulation is observed” value in assay [3] (iTAG1(DCD23) and iTAG2 tagged CAR, FIG. 7) worked out at 0.01 µM. In assay [3] (tagged CAR, FIG. 7), the “potency for degradation among lenalidomide, pomalidomide and iberdomide” value is “highest potency”.
